Data reported in patent US9572831B2, “Composition and method for sulfated non-anticoagulant low molecular weight heparins in cancer and tumor metastasis” (priority 2013, dated 2017).
Read-outs that look alike come from different tables or passages of the source.

Assays:
[1] = test system: 253JBV bladder cells; assay: Western blots of bladder cancer cell proteins; assay type: cell-based; conditions: 48 hour; Cisplatin 10 ug/ml, S-NACH 20 ug/ml, LMWH 20 ug/ml
Procedure: 253JBV bladder cells were cultured and treated [Control (PBS), Cisplatin (10 ug/ml), S-NACH (20 ug/ml), LMWH (20 ug/ml)] for 48 hour. Total proteins were collected to quantitate expression of the proteins using western blots.

[2] = test system: MCF7-WT cells; assay: Nanoparticle Dox formulations in mice with MCF7-WT tumors; assay type: in vivo; conditions: treatment begun 10 days after inoculation; n=8
Source text: Mice were inoculated with 1.4×10^7 MCF7-WT cells. […] Tumor volume measurements were obtained over time course shown. Values are mean tumor volume in mm^3±SEM, n=8 mice/group.

[3] = test system: MCF7-R cells; assay: Nanoparticle Dox formulations in mice with MCF7-R tumors; assay type: in vivo
Procedure: FIG. 20 depicts anti-tumor efficacy of nanoparticle formulations encapsulating Doxorubicin with and without LMWHs vs. un-encapsulated Doxorubicin in mice with MCF7-R Tumors, in accordance with embodiments of the present invention. […] Treatments, as shown in legend, were begun after tumors had reached a size of 50-100 mm^3. Tumor volumes were measured daily. Animals were euthanized when Controls reached a size of 2000 mm^3 (as per IACUC approval).
In vivo data using in mice xenograft (MCF-7R) are shown in Table 5 (amounts of doxorubicin and NACH injected in all cases were 0.625 mg/kg and 2.5 mg/kg body weight).

[4] = test system: MPanc96-luc cells; assay type: in vivo, athymic nude mice; conditions: S-NACH 20 mg/kg s.c. daily, gemcitabine 100 mg/kg i.p. twice a week, 28 days
Procedure: MPanc96-luc cells were harvested as described above and were orthotopically implanted (2×10^5 cells in 50 μl PBS per mouse) in the pancreas of anesthetized athymic nude mice. Just before treatment initiation, animals (n=10 per group) were randomized by tumor mass detected by an in vivo imaging system (IVIS, described below). Heparin derivatives S-NACH at 20 mg/kg and tinzaparin at 5 mg/kg were administered subcutaneously daily. Gemcitabine at 100 mg/kg was injected intraperitoneally twice a week alone or in combination with either S-NACH or tinzaparin. All mice used for treatment response evaluations were euthanized after 28 days. See Table 2 for the protocol of the study. Imaging was performed once per week to monitor tumor growth. Mice bearing MPanc96-luc tumors were anaesthetized using isoflurane, injected subcutaneously with 50 μl D-luciferin (30 mg/ml), then imaged. Photographic and luminescence images were taken at constant exposure time. Xenogen IVIS® Living Image software version 3.2 was used to quantify non-saturated bioluminescence in regions of interest. Light emission between 5.5×10^6-7.0×10^10 photons was assumed to be indicative of viable luciferase-labeled tumor cells while emissions below this range were considered as background. Bioluminescence was quantified as photons/second for each region of interest. In vivo tumor kinetic growth and metastasis were monitored by signal intensity. Ex vivo imaging was performed to confirm the signal intensity in the tumors after the termination. All specimens were analyzed by histology for routine analysis. Specimens were fixed in 10% buffered formalin, processed routinely, and embedded in paraffin. Then, after fixation, the specimens were transferred into the embedding chambers to hold the specimens in position until the paraffin became solid to prevent further rotation. Four μm serial sections were cut, and then stained using haematoxylin and eosin. Sections were evaluated for various pathologic parameters using a light microscope (Leica, Buffalo Grove, Ill.).

[5] = Whole blood clotting times by Sonoclot Analyzer and TEG; assay type: in vivo; conditions: intravenous, 10 mg/kg, mice, n=5
Procedure: Two heparins, commercial formulation Enoxaparin and non-anticoagulant heparin (NACH) including S-NACH or S-SNACH were evaluated for their effects on coagulation. Whole blood clotting times were measured by the Sonoclot Analyzer (left panel) and by TEG (right panel); n=5.

[6] = test system: intrinsic pathway of the coagulation cascade; assay: APTT assay; assay type: biochemical
Procedure: Activated Partial Thromboplastin Time (aPTT) is sensitive to all factors in the intrinsic pathway of the coagulation cascade and the presence of heparin. The aPTT was measured for each of the 8 USP heparins, using the ACL 8000 Beckman Coulter coagulation analyzer and the Trinity Biotech Trini CLOT Automated aPTT assay kit (Berkeley Heights, N.J.). Additionally, aPTT was measured for heparin, LMWH, and S-NACH.

[7] = Mouse deaths over all experiments; assay type: in vivo, mice
Procedure: In the second experiment, a higher concentration of S-SNACH (20 mg/kg) was used. […] The percentile death of mice was high in the LMWH group and reached 6 animals (50%) at the end of the experiment due to internal bleeding after two invasive surgeries. At the end of all experiments, the percentile death among all groups was calculated and compared.
The average dose of LMWH for enoxaparin in humans is 1.0-1.5 mg/kg and relatively higher in mice. In the experiment performed in the present invention, 5-10 mg/kg was used for LMWH (tinzaparin) and as high as 20-100 mg/kg was used for SNACH.

Compound: N.N.[Cl][Pt][Cl] [Cisplatin]
- E-cadherin protein expression [1]: increased
- MMP-2 protein expression [1]: reduced

Compound: COc1cccc2c1C(=O)c1c(O)c3c(c(O)c1C2=O)C[C@@](O)(C(=O)CO)C[C@@H]3O[C@H]1C[C@H](N)[C@H](O)[C@H](C)O1 [Doxorubicin]
- tumor growth (tumor volume) [2]: effectively inhibited
- tumor volume over time ([3]; FIG. 20 Panel A): same pattern of tumor growth as untreated controls
- Tumor Mass ([3]; doxorubicin 0.625 mg/kg, NACH 2.5 mg/kg body weight, mean): 1.3 g

Compound: Nc1ccn([C@@H]2O[C@H](CO)[C@@H](O)C2(F)F)c(=O)n1 [Gemcitabine]
- tumor luciferin signal intensity [4]: reduced
- tumor weights [4]: reduced
- tumor luciferin signal intensity ([4]; listed as GEM): suppression of tumor signal intensity

Compound: Enoxaparin
- clot times (whole blood clotting time, time to clot initiation) [5]: significantly prolonged

Compound: Heparin
- aPTT [6]: increased aPTT in a dose-dependent manner
- rate of death among the mice [7]: higher mortality
